Molecular target: chlorite dismutase (DaCld) (Dechloromonas aromatica (nom. nud.), UniProt Q47CX0)
Test: steady-state peroxidase assay
Assay type: biochemical

Sequence of chlorite dismutase (DaCld) (Q47CX0 35-282): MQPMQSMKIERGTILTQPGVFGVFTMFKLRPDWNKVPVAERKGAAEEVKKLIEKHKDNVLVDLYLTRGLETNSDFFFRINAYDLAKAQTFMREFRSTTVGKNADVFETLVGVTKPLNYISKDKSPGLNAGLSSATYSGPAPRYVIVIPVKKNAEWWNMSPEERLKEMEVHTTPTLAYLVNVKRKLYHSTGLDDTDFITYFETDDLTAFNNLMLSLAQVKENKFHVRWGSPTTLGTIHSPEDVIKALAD

- kcat (S^-1): 2.8 s⁻¹
SMILES: COc1ccccc1O [guaiacol, 2-methoxyphenol]

Reference: PMC4390081 (Biochemistry, 2013)
